Results reported in publication PMC8081293 (Frontiers in Chemistry, 2021).
Where two headings read alike, the source gives them in different places.

How the values were obtained:
Test in all cases: acetophenone formation at […] nm, Michaelis-Menten fit
Assay type in all cases: biochemical
Conditions in all cases: 0.1 mM PLP, 0.25% DMSO, 50 mM sodium phosphate pH 8.0, 25°C
At-ATA [1] = target: T1, At-ATA (Aspergillus terreus, UniProt Q0C8G1, E133Q)
T1 construct: gene ATEG_10023

At-ATA [2] = target: T2, At-ATA (Aspergillus terreus, UniProt Q0C8G1, D224K)
T2 construct: gene ATEG_10023

At-ATA [3] = target: T3, At-ATA (Aspergillus terreus, UniProt Q0C8G1, E253A)
T3 construct: gene ATEG_10023

[4] = read-out: Km1-(R)-PEA /, 2.5 mM pyruvate
[5] = read-out: Kmpyruvate /, 2.5 mM 1-(R)-PEA

Structure (SMILES)	Km (At-ATA [1]; [4]) [µM]	Km (At-ATA [2]; [4]) [µM]	Km (At-ATA [3]; [4]) [µM]	Km (At-ATA [1]; [5]) [µM]	Km (At-ATA [2]; [5]) [µM]	Km (At-ATA [3]; [5]) [µM]
C[C@@H](N)c1ccccc1 [1-(R)-PEA]	160 ± 10	140 ± 10	170 ± 20			
CC(=O)C(=O)O [pyruvate]				500 ± 10	350 ± 20	690 ± 10
